Assay results: US7635722B1, “Chemical induced intracellular hyperthermia” (priority 1998, dated 2009)

Assays:
Assay type in all cases: in vivo, human
[1] = test system: candida; experiment: DNP hyperthermia, oral candidiasis (Example 2)
Method: (§1) Pretreatment protocol: all medications were stopped 2 weeks prior to treatment. The patient refused taking diazepam, placement of a Foley catheter and oxygen face mask. They dressed themself into a dry cold water immersion suit (Stearns, ISS-590I, Universal Adult) designed to prevent heat loss and modified for easy placement of physiologic monitors. Equipment for measurement of heart rate, temperature, carbon dioxide production and Kcal of heat produced were conducted as outlined in Example 1. An oral breathing tube was used to measure V02 from room air. Urine output was measured when the patient voluntarily urinated through a “Texas” catheter (superficial condom tightly fitted around the head of the penis with tubing connected to urine collection bag). The patient was informed that hyperthermia would be administered as tolerated by their stamina and monitored clinical parameters, not to exceed 5 hours, on a daily or every other day basis, for a total of 5 sessions.
(§2) Treatment procedure: Baseline reading for 5 minutes established an average V02 of 300 cc/min. An initial dose of 2 mg/kg of DNP was administered over a 2 minute period. V02 increased and stabilized at 15 minutes at 340-380 cc/min. An additional 2 mg/kg DNP infusion was given, the V02 increased and stabilized at 610-630 cc/min. […]

[2] = test system: glioma; experiment: DNP enhanced PET-FDG scan, glioma (Example 7); set-up: key to metabolic grade of FDG uptake, selected target / metabolic grade, hypermetabolic component in the tumor area / metabolic grade, remaining viable tumor: I: FDG uptake less than contralateral white matter; II: uptake between the levels in contralateral white and gray matter; III: FDG uptake equal to or greater than in contralateral gray matter
Text: Pretreatment protocol: three days prior to DNP dosing and repeat PET-FDG scan, the patient's dosage of phenyloin was increased from 100-mg three times daily to 200-mg three times a day. The same positron emission tomogram, a CTI-Siemens 933/08-12 which provides a 6.75-mm adjacent slices and in-plane spatial resolution (full-width at half maximum) of ˜5 mm, was to be used. The highest level of non to DNP stimulated FDG uptake in the tumor area was to be compared and qualitatively graded by two radiologists. Independently, each investigator was to visually evaluate the positron emission tomogram and use the following metabolic grading scale: I, FDG uptake less than contralateral white matter; II, uptake between the levels in contralateral white and gray matter; III, FDG uptake equal to or greater than in contralateral gray matter.
Diagnostic—treatment protocol: the patient was given a 300 mg capsule of DNP (approximately 4 mg/kg body weight) three hours prior to undergoing a PET-FDG scan. Forty minutes prior to the emission scan they were intravenously injected with a bolus of FDG according to standard methodology. Immediately prior to the 20-minute emission scan the patients VO2 uptake was 40% above that at baseline. The patients DNP/VO2 flow chart is FIG. 24.

[3] = test system: Kaposi's sarcoma; experiment: DNP hyperthermia, Kaposi's sarcoma lesions (Example 2)
Method: as §1, §2

[4] = test system: peritoneal carcinomatosis, undifferentiated adenocarcinoma; experiment: DNP with vasopressor and chemotherapy, peritoneal carcinomatosis (Example 4)
Text: It was elected to treat the patient with hyperthermochemotherapy. Treatment consisted of DNP, and combination chemotherapy with carboplatin, mitomycin, and doxifluridine. An α-1 adrenergic receptor agonist was used to minimize peripheral vascular dilation and heat loss.
Pretreatment protocol: the patient was transfused with three units of packed red blood cells. A Foley catheter was inserted on each day of treatment. They were covered in a water soaked blanket containing a polyethylene lining. A shower cap with towels was used to prevent heat loss from the head. Intravenous lines were placed into both arms with 19 gauge intracaths. EKG, heart rate, rectal thermistor, and V02 monitors were attached. Oxygen supplemented facemask and equipment was attached and data monitored as previously described under Example 1.
Treatment protocol: the patient was given chemotherapy […]. The total doses of carboplatin, and mitomycin were 450 mg and 24 mg IV respectively on day 1 and last day of week 6. Doxifluridine, 600 mg, was orally administered every day for 5 days and repeated the last 5 days of week 6. On the day of DNP infusion, baseline recordings were established for 10 minutes. Mephenteramine sulfate, 30 mg, was given by intramuscular injection. Ten minutes later their heart rate increased to 96 and […] V02 increased from 250 to 320 cc/min. V02, heart rate and blood pressure stabilized after 20 minutes and they were given an initial dose of 1 mg/kg DNP. Additional 0.5 mg/kg infusions of DNP were administered in 3 successive infusions spaced 20 minutes apart. […] The DNP treatment protocol was repeated every fourth day for a period of 6 weeks.

[5] = DNP enhancement, one year after diagnosis and therapy

Structure (SMILES): O=[N+]([O-])c1ccc(O)c([N+](=O)[O-])c1 [DNP, 2,4-dinitrophenol]
- oral candidiasis ([1]; 3rd day of therapy): no evidence of oral candidiasis
- improvement of oral candidiasis ([1]; immediately after the first treatment): 50%
- DNP enhanced PET-FDG scan finding ([2]; 300 mg oral DNP, none without DNP): two areas of hypermetabolism
- metabolic grade of FDG uptake, selected target ([2]; DNP enhanced PET-FDG scan): III
- metabolic grade, hypermetabolic component in the tumor area [2, 5]: II
- metabolic grade, remaining viable tumor [2, 5]: I
- anal tumor diminished in size ([3]; 5th and last day of therapy): approximately 60%
- oral and anal KS lesions ([3]; 30 days post-treatment): complete regression of both oral and anal KS lesions
- magnetic resonance imaging and echo of the abdomen ([4]; after combined treatments): complete resolution of peritoneal metastasis
- ascites ([4]; end of the sixth week, DNP with carboplatin, mitomycin, doxifluridine): resolved
- survival ([4]; nine and a half months after treatment): alive without any evidence of tumor reoccurrence
- serum levels of amylase and all tumor markers ([4]; week 6, combined treatments): normal at week 6
